Test results taken from US20250195500A1, “INJECTABLE PREPARATION COMPRISING ISOXAZOLINE DERIVATIVE, AND PREPARATION METHOD THEREFOR” (LG CHEM, LTD., priority 2022, published 2025).
“Also recorded” adds a separate entry of the source.

Assays:
[1] = Solubility in solvents of various compositions; type: physicochemical
Excerpt: Further, it was confirmed that the compound of Formula 1 has the property of reducing the pH of a solution while being dissolved in a solvent.

caspase = assay: Caspase inhibitory activity; type: biochemical; conditions: form present in aqueous solution
[2] = Conversion from compound of Formula 2 to compound of Formula 3 according to pH of solvent; type: physicochemical

SMILES | solubility in solvent ([1]; basic solvent pH 9.0 or higher, strong acidic solvent pH 1 or lower or specific solvent that can be freeze-dried) | solubility in water ([1]; water) | caspase inhibitory activity (caspase) | production of compound of Formula 3 from compound of Formula 2 ([2]; acidic solvent) | production of compound of Formula 3 from compound of Formula 2 ([2]; neutral or more basic solvent)
CC(C)[C@@]1(C(=O)NC2CC(=O)OC2(O)CF)CC(c2nccc3ccccc23)=NO1 (stereo in doubt) [compound of Formula 1, (R)—N-((2S,3S)-2-(fluoromethyl)-2-hydroxy-5-oxotetrahydrofuran-3-yl)-5-isopropyl-3-(isoquinolin-1-yl)-4,5-dihydroisoxazol-5-carboxamide] | dissolves well | poorly soluble in water; also recorded: hardly soluble in water | – | – | –
CC(C)[C@@]1(C(=O)N[C@@H](CC(=O)O)C(=O)CF)CC(c2nccc3ccccc23)=NO1 [compound of Formula 2] | – | – | active form | – | –
CC(C)[C@@]1(C(=O)N[C@H](CC(=O)O)C(=O)CF)CC(c2nccc3ccccc23)=NO1 [compound of Formula 3] | – | – | does not show the caspase inhibitory activity | hardly produced | rapidly produced
